Assay results from patent US9499519B2, “Fused pyrimidine compounds and use thereof” (Medivation Technologies, Inc., priority 2012, dated 2016).

Columns and labels:
Format in all cases: biochemical
[1] = target: c-Met (Homo sapiens, UniProt P08581); assay: HotSpot kinase assay: c-Met; conditions: 100 nM compound, read-out: % Enzyme Inhibition @ 100 nM c-MET
Description: (§1) Kinase assays were performed using additional compounds against a panel of 4 kinases: AXL; c-Met; c-Mer; and Trk C. Each compound was tested at a concentration of 0.1 M in single duplicate mode against the 4 kinases. Compounds were prepared as 10 mM stock solutions in DMSO prior to use in the assay. […] IC50 values and curve fits were obtained using Prism (GraphPad Software).
(§2) The screening was performed using the “HotSpot” assay platform. The assay measures the conversion of a peptide substrate to ^33P-labelled phosphorylated product. Briefly, specific kinase/substrate pairs along with required cofactors were prepared in reaction buffer. Specifically, the substrate was prepared in reaction buffer (20 mM Hepes, pH 7.5; 10 mM MgCl2; 1 mM EGTA; 0.02% Brij35; 0.02 mg/mL BSA; 0.1 mM Na3VO4; 2 mM DTT; 1% DMSO), followed by delivery of any required cofactor to the resulting substrate solution. The corresponding kinase was delivered into the substrate solution and the reaction mixture was mixed gently. Compound was delivered into the reaction mixture, followed 15-20 minutes later by addition of a mixture of ATP (Sigma, St. Louis Mo.) and ^33P ATP (specific activity 0.01 μCi/μL final; Perkin Elmer, Waltham, Mass.) to a final concentration of 10 μM-30 μM to initiate the reaction. […] The percent of enzyme inhibition was calculated based on the percent of remaining kinase activity.

[2] = target: T1, AXL (Homo sapiens, UniProt P30530); assay: HotSpot kinase assay: AXL; conditions: 100 nM compound, read-out: % Enzyme Inhibition @ 100 nM AXL
T1 sequence (P30530 26-894): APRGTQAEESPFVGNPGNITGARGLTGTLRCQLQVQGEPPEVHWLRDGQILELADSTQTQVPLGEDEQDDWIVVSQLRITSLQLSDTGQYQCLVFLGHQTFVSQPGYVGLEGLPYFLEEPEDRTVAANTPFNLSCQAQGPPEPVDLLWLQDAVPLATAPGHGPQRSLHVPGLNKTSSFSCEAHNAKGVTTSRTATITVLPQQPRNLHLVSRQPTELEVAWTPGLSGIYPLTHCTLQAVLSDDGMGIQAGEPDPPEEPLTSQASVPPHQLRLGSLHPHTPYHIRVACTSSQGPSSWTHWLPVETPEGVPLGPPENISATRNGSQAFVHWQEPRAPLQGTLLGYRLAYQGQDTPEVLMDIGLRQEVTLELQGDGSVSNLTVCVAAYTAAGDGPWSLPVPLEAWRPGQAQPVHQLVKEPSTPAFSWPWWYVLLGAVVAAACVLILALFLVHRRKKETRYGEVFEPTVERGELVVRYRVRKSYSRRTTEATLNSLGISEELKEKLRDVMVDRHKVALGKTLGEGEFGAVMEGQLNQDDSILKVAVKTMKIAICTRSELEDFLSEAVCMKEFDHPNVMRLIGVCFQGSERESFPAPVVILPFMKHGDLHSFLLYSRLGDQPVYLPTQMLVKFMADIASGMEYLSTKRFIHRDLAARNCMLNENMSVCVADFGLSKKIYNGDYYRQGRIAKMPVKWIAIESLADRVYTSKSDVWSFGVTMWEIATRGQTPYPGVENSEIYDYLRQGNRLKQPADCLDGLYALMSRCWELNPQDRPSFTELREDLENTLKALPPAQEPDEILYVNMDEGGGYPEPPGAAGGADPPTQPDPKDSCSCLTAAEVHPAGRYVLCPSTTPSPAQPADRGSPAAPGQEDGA
Description: as §1, §2

[3] = target: Trk C (Homo sapiens, UniProt Q16288); assay: HotSpot kinase assay: Trk C; conditions: 100 nM compound, HotSpot; for inhibition at 0.1 µM: read-out: % Enzyme Inhibition @ 100 nM Trk C
Description: (§3) Each compound was tested at a concentration of 0.1 μM in single duplicate mode against the 3 kinases. Compounds were prepared as 10 mM stock solutions in DMSO prior to use in the assay. […] IC50 values and curve fits were obtained using Prism (GraphPad Software).
as §2, §1

[4] = target: T2, c-Mer (Homo sapiens, UniProt Q12866); assay: HotSpot kinase assay: c-Mer; conditions: 100 nM compound, read-out: % Enzyme Inhibition @ 100 nM c-MER
T2 sequence (Q12866 21-999): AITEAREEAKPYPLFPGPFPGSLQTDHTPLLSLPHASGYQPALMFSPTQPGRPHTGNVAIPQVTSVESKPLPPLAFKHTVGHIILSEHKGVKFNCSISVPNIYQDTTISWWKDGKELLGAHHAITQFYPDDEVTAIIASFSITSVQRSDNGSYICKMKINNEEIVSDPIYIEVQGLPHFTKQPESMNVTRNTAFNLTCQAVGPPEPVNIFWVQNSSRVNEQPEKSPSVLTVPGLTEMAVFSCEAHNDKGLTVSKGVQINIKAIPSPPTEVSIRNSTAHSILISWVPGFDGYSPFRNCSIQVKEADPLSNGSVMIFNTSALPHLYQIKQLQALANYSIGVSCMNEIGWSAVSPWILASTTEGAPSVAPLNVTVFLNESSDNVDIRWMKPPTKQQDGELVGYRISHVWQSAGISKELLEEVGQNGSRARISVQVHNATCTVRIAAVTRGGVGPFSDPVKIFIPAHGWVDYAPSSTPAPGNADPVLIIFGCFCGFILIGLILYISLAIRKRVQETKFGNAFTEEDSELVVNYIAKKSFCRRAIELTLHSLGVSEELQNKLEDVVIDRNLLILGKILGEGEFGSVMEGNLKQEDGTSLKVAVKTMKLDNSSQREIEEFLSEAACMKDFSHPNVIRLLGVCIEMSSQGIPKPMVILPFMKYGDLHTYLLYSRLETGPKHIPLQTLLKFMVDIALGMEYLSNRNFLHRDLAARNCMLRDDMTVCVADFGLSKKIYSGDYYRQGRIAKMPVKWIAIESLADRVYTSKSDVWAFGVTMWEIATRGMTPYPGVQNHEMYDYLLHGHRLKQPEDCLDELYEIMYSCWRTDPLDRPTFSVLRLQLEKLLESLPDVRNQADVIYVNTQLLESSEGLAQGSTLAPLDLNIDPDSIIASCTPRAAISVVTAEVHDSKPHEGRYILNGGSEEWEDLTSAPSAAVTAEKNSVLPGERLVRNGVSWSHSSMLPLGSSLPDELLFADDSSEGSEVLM
Description: as §1, §2

[5] = target: Trk A (Homo sapiens, UniProt P04629); assay: HotSpot kinase assay: Trk A; conditions: 100 nM compound; for inhibition at 0.1 µM: read-out: % Enzyme Inhibition @ 100 nM Trk A
Description: as §1, with “of 3” for “of 4”, “kinases: Trk A; Trk B;” for “kinases: AXL; c-Met; c-Mer;”, “0.1 μM” for “0.1 M”, “the 3” for “the 4”, “Software). […]” for “Software).”
The screening was performed using the “HotSpot” assay platform. The assay measures the conversion of a peptide substrate to ^33P-labelled phosphorylated product. Briefly, specific kinase/substrate pairs along with required cofactors were prepared in reaction buffer. Specifically, the substrate was prepared in reaction buffer (20 mM Hepes, pH 7.5; 10 mM MgCl2; 1 mM EGTA; 0.02% Brij35; 0.02 mg/mL BSA; 0.1 mM Na3VO4; 2 mM DTT; 1% DMSO), followed by delivery of any required cofactor to the resulting substrate solution. The corresponding kinase was delivered into the substrate solution and the reaction mixture was mixed gently. Compound was delivered into the reaction mixture, followed 15-20 minutes later by addition of a mixture of ATP (Sigma, St. Louis Mo.) and ^33P ATP (specific activity 0.01 μCi/μL final; Perkin Elmer, Waltham, Mass.) to a final concentration of 10 μM-30 μM to initiate the reaction. Reactions were carried out at room temperature for 120 minutes, followed by spotting of the reactions onto P81 ion exchange filter paper (Whatman #3698-915; Whatman Inc., Piscataway, N.J.). Unbound phosphate was removed by extensive washing of filters in 0.75% phosphoric acid. […] The percent of enzyme inhibition was calculated based on the percent of remaining kinase activity.

[6] = target: T3, IGF-1R (Homo sapiens, UniProt P08069); assay: In vitro IGF-1R enzymatic assay (ADP-Glo kinase assay); conditions: activated IGF-1R, 1 μM, in duplicate; read-out: inhibition of binding
T3 construct: purchased Millipore 14-802
Description: IC50 values of the compounds of the invention against IGF-1R and IR were measured in vitro using an ADP-Glo kinase assay Kit (Promega). […] Kinase reactions in both assays were conducted at 30° C. for 20 min with increasing concentrations of compounds of the invention.
Additional compounds of the invention were screened against activated IGF-1R.

[7] = target: T4, IR (Homo sapiens, UniProt P06213); assay: In vitro IR enzymatic assay (ADP-Glo kinase assay); conditions: activated IR, in duplicate, read-out: inhibition of binding
T4 construct: purchased Millipore 14-803

[8] = target: Trk B (Homo sapiens, UniProt Q16620); assay: HotSpot kinase assay: Trk B; conditions: 100 nM compound; for inhibition at 0.1 µM: read-out: % Enzyme Inhibition @ 100 nM Trk B
Description: as §3, §2

Sequence of c-Met (P08581 25-1390): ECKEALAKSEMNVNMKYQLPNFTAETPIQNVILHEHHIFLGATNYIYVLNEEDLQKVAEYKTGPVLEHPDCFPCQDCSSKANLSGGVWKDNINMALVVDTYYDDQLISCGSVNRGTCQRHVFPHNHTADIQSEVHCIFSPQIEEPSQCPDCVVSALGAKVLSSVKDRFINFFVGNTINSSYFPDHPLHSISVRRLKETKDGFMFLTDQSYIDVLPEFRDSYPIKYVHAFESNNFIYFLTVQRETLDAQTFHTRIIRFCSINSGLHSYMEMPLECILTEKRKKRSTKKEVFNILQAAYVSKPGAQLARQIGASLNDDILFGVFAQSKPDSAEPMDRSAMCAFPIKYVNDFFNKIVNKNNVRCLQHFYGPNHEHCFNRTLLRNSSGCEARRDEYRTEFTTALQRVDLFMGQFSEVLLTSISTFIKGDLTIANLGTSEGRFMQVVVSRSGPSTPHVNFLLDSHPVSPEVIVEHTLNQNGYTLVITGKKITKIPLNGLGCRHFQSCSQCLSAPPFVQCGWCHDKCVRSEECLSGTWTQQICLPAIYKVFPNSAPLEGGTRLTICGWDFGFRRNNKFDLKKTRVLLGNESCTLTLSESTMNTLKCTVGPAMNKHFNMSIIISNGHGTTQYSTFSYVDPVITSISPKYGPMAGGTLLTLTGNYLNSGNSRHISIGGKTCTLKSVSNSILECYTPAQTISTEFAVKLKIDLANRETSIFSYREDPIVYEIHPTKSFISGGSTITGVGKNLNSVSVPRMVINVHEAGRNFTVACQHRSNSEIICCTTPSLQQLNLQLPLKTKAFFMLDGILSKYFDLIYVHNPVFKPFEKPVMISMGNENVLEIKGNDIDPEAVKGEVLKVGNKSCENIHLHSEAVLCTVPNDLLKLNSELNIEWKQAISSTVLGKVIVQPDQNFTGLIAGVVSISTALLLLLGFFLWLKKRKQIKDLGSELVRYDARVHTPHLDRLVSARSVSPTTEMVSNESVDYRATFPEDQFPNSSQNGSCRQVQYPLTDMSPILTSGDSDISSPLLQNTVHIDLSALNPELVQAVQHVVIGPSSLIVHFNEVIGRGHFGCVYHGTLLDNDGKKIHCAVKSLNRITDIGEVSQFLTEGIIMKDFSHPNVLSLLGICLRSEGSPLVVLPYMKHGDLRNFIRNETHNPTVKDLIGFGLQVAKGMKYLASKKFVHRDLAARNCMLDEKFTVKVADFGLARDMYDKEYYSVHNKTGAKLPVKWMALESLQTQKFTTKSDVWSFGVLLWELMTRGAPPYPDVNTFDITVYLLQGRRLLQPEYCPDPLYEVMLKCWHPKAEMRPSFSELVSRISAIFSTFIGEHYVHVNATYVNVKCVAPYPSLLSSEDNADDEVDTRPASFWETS
Sequence of Trk A (P04629 33-796): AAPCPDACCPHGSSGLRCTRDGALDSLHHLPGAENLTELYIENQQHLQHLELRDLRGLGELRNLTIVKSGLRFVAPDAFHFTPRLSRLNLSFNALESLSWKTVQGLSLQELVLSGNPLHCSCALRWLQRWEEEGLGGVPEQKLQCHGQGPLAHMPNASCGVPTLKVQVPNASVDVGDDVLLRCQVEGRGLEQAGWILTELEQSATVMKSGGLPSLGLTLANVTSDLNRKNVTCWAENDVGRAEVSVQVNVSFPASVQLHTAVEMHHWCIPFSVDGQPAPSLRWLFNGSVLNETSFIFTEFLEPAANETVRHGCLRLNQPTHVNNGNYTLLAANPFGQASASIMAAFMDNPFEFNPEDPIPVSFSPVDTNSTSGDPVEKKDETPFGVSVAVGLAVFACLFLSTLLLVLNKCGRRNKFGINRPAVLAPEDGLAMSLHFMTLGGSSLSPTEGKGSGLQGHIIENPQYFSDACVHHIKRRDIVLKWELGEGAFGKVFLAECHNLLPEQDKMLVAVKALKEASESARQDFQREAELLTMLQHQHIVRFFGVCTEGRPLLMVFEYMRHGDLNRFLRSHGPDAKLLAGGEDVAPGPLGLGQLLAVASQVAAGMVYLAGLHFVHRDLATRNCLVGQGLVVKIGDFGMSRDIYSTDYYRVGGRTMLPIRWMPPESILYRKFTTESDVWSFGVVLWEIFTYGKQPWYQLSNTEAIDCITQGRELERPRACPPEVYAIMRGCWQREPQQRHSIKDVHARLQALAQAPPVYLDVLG
Sequence of Trk C (Q16288 32-839): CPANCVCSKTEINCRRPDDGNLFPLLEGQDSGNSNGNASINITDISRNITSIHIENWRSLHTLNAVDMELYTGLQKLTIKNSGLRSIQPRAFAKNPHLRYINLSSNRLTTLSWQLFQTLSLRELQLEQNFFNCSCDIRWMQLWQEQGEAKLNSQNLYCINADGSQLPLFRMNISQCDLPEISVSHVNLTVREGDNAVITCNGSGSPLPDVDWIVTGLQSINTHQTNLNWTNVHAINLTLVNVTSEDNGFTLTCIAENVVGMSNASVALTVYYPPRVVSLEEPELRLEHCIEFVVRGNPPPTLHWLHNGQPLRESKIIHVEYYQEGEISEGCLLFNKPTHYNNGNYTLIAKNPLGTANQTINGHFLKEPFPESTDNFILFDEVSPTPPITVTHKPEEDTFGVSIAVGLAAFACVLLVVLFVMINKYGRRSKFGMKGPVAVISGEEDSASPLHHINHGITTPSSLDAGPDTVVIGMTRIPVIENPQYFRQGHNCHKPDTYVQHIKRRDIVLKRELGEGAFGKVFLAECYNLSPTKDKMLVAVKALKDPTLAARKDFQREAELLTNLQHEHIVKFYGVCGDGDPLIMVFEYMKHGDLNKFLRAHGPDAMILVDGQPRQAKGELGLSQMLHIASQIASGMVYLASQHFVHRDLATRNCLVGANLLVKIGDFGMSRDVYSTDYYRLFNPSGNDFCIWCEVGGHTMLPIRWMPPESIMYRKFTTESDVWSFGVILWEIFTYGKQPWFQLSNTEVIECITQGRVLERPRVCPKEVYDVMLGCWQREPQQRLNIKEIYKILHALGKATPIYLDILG
T3 sequence (P08069 31-1367): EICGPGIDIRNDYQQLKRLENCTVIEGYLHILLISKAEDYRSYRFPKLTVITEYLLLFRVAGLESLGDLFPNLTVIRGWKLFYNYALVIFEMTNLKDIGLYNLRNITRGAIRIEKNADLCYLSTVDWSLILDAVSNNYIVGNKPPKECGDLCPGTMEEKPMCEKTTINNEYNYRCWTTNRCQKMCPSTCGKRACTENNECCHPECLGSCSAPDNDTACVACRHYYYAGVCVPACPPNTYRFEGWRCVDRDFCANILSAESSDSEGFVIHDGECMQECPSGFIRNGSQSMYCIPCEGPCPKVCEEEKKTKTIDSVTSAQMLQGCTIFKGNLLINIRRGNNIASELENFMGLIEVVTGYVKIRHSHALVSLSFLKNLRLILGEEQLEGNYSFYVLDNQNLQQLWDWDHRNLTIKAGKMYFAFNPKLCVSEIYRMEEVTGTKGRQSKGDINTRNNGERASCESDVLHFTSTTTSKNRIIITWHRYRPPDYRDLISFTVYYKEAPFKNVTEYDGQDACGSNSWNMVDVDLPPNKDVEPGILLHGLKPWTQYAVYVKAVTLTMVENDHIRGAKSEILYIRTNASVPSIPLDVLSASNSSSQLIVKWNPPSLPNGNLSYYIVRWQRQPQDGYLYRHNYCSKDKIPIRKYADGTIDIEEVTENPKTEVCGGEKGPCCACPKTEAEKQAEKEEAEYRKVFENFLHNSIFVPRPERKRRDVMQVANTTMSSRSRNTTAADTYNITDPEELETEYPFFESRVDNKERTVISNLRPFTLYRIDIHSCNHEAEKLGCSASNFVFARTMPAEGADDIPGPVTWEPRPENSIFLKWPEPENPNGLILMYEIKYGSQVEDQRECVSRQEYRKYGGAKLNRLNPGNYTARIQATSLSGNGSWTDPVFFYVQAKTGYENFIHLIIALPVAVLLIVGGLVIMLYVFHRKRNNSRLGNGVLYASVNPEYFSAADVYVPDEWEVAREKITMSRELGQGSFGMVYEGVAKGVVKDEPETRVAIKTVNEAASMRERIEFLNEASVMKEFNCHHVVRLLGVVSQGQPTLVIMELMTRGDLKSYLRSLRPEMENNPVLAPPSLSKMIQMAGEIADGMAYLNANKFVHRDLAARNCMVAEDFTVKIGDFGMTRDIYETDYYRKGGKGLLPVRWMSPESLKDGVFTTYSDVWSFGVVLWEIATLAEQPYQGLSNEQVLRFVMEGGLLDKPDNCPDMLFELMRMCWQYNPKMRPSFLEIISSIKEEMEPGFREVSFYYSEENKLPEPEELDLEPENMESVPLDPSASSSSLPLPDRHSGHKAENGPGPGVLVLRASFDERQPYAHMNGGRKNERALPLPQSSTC
Sequence of Trk B (Q16620 32-822): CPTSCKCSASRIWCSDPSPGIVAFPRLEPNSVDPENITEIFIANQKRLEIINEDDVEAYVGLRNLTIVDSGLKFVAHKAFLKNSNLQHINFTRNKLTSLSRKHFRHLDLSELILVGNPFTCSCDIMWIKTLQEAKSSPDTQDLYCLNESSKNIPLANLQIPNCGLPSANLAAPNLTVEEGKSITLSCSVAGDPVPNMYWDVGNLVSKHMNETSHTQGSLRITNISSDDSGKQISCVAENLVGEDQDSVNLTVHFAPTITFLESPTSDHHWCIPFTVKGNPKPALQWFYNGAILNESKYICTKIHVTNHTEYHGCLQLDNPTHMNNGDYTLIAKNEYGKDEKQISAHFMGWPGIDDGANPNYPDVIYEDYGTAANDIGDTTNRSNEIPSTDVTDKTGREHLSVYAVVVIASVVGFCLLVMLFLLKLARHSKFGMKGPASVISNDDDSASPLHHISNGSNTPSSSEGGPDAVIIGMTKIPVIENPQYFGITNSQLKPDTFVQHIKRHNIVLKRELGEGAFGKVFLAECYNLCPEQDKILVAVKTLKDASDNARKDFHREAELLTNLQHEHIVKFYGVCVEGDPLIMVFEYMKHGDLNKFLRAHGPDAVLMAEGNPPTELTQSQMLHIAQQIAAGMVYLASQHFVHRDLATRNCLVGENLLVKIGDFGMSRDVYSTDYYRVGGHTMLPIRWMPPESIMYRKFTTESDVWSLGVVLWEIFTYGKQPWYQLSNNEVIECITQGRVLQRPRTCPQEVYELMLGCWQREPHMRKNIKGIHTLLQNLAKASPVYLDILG

## O=C(Nc1ccc(F)nc1)C1CCCN1c1nc2c(c(Nc3ccc(=O)[nH]n3)n1)CCC2 (stereo not shown) [Compound 101b, N-(6-fluoropyridin-3-yl)-1-(4-(6-oxo-1,6-dihydropyridazin-3-ylamino)-6,7-dihydro-5H-cyclopenta[d]pyrimidin-2-yl)pyrrolidine-2-carboxamide]
[1]
  inhibition at 0.1 µM: < 39%
[2]
  inhibition at 0.1 µM: < 39%
[3]
  inhibition at 0.1 µM: < 39%
[4]
  inhibition at 0.1 µM: < 39%

## O=C(Nc1ccc(F)nc1)C1CCCN1c1nc2c(c(Nc3ccccn3)n1)CCC2 (stereo not shown) [Compound 102a, N-(6-fluoropyridin-3-yl)-1-(4-(pyridin-2-ylamino)-6,7-dihydro-5H-cyclopenta[d]pyrimidin-2-yl)pyrrolidine-2-carboxamide]
[1]
  inhibition at 0.1 µM: < 39%
[2]
  inhibition at 0.1 µM: < 39%
[3]
  inhibition at 0.1 µM: < 39%
[4]
  inhibition at 0.1 µM: < 39%

## O=C(Nc1nccs1)C1CCCN1c1nc2c(c(Nc3ncccn3)n1)CCC2 (stereo not shown) [Compound 105a, 1-(4-(pyrimidin-2-ylamino)-6,7-dihydro-5H-cyclopenta[d]pyrimidin-2-yl)-N-(thiazol-2-yl)pyrrolidine-2-carboxamide]
[1]
  inhibition at 0.1 µM: < 39%
[2]
  inhibition at 0.1 µM: < 39%
[3]
  inhibition at 0.1 µM: < 39%
[4]
  inhibition at 0.1 µM: < 39%

## O=C(C1CCCN1c1nc2c(c(Nc3cc(C4CCCC4)[nH]n3)n1)CCC2)N1CCCC1 (stereo not shown) [Compound 112a, (1-(4-(5-cyclopentyl-1H-pyrazol-3-ylamino)-6,7-dihydro-5H-cyclopenta[d]pyrimidin-2-yl)pyrrolidin-2-yl)(pyrrolidin-1-yl)methanone]
[5]
  inhibition at 0.1 µM: > 60%
[6]
  inhibition at 1 µM: < 35%
[7]
  inhibition at 1 µM: ≤ 40%
[8]
  inhibition at 0.1 µM: > 60%
[3]
  inhibition at 0.1 µM: > 60%

## O=C(C1CCCN1c1nc2c(c(Nc3cc(C4CCCCC4)[nH]n3)n1)CCC2)N1CCCCC1 (stereo not shown) [Compound 113a, (1-(4-(5-cyclohexyl-1H-pyrazol-3-ylamino)-6,7-dihydro-5H-cyclopenta[d]pyrimidin-2-yl)pyrrolidin-2-yl)(piperidin-1-yl)methanone]
[5]
  % Enzyme Inhibition @ 100 nM Trk A: ++ (Medium (40 to 59% inhibition, ++))
[6]
  inhibition at 1 µM: < 35%
[7]
  inhibition at 1 µM: ≤ 40%
[8]
  % Enzyme Inhibition @ 100 nM Trk B: + (Low (39% or lower inhibition, +))
[3]
  % Enzyme Inhibition @ 100 nM Trk C: ++ (Medium (40 to 59% inhibition, ++))

## CN(C)C(=O)C1CCCN1c1nc2c(c(Nc3cc(C4CCCCC4)[nH]n3)n1)CCC2 (stereo not shown) [Compound 114a, 1-(4-(5-cyclohexyl-1H-pyrazol-3-ylamino)-6,7-dihydro-5H-cyclopenta[d]pyrimidin-2-yl)-N,N-dimethylpyrrolidine-2-carboxamide]
[5]
  % Enzyme Inhibition @ 100 nM Trk A: ++ (Medium (40 to 59% inhibition, ++))
[6]
  inhibition at 1 µM: < 35%
[7]
  inhibition at 1 µM: ≤ 40%
[8]
  % Enzyme Inhibition @ 100 nM Trk B: ++ (Medium (40 to 59% inhibition, ++))
[3]
  % Enzyme Inhibition @ 100 nM Trk C: ++ (Medium (40 to 59% inhibition, ++))

## CN(C)C(=O)C1CCCN1c1nc2c(c(Nc3cc(C4CCCC4)[nH]n3)n1)CCC2 (stereo not shown) [Compound 115a, 1-(4-(5-cyclopentyl-1H-pyrazol-3-ylamino)-6,7-dihydro-5H-cyclopenta[d]pyrimidin-2-yl)-N,N-dimethylpyrrolidine-2-carboxamide]
[5]
  inhibition at 0.1 µM: < 39%
[6]
  inhibition at 1 µM: < 35%
[7]
  inhibition at 1 µM: ≤ 40%
[8]
  inhibition at 0.1 µM: > 60%
[3]
  inhibition at 0.1 µM: > 60%

## CCN(CC)C(=O)C1CCCN1c1nc2c(c(Nc3cc(C4CCCC4)[nH]n3)n1)CCC2 (stereo not shown) [Compound 116a, 1-(4-(5-cyclopenxyl-1H-pyrazol-3-ylamino)-6,7-dihydro-5H-cyclopenta[d]pyrimidin-2-yl)-N,N-diethylpyrrolidine-2-carboxamide]
[5]
  inhibition at 0.1 µM: < 39%
[6]
  inhibition at 1 µM: < 35%
[7]
  inhibition at 1 µM: ≤ 40%
[8]
  inhibition at 0.1 µM: > 60%
[3]
  inhibition at 0.1 µM: > 60%
